≈ marks a conversion by molar mass, not a printed value.
Tests used:
Type in all cases: cell-based
Zika virus = test: anti-Zika virus activity (EC50)
dengue virus (DENV) = test: anti-dengue virus activity (EC50)
[1] = tested on: drug resistant strains of Acinetobacter baumannii; test: anti-drug resistant strains of Acinetobacter baumannii (MIC)
Usutu virus (USUV) = test: anti-Usutu virus activity (inhibition rate); conditions: Usutu virus
Zika virus (ZIKV) = test: anti-Zika virus activity (inhibition rate); conditions: Zika virus; Drug concentration 11 μM

| Structure (SMILES) | EC50 (dengue virus (DENV)) | other results |
| --- | --- | --- |
| COc1ccc(C2c3c([nH]c4ccccc34)C(=O)N2Nc2ccc([N+](=O)[O-])cc2)cc1OC (stereo not drawn) [ZFD-33A + B] | – | EC50 (Zika virus): 17.2 µM |
| O=C(NNc1ccccc1)C1CCc2ccccc2N1 (stereo not drawn) [ZXD-44] | 1.5 µM | MIC ([1]; resistant strain of Acinetobacter baumannii no. 17): 4 µg/mL (≈ 15 µM); MIC ([1]; resistant strain of Acinetobacter baumannii no. 18): 8 µg/mL (≈ 29.9 µM); MIC ([1]; resistant strain of Acinetobacter baumannii no. 19): 8 µg/mL (≈ 29.9 µM); MIC ([1]; resistant strain of Acinetobacter baumannii no. 20): 2 µg/mL (≈ 7.48 µM) |
| O=C1C2CCc3ccccc3N2C(c2ccc(Cl)cc2)N1Nc1ccccc1 (stereo not drawn) [ZXD-87A] | – | EC50 (Zika virus): 3.4 ± 0.38 µM |
| C=C(C)c1ccc(C2N(Nc3ccccc3)C(=O)C3CCc4ccccc4N32)cc1 (stereo not drawn) [ZXD-89A] | 0.74 µM | – |
| O=C1[C@H]2CCc3ccccc3N2C(Cc2ccc([N+](=O)[O-])cc2)N1Nc1ccccc1 (stereo partly drawn) [ZXD-100A] | 2 µM | – |
| O=C1[C@@H]2CCc3ccccc3N2[C@@H](Cc2ccc([N+](=O)[O-])cc2)N1Nc1ccccc1 [ZXD-100B] | 0.85 µM | – |
| O=C1[C@@H]2CCc3ccccc3N2[C@@H](c2ccccc2)N1Nc1ccc([N+](=O)[O-])cc1 [ZXD-106] | 5.2 µM | – |
| O=C1[C@@H]2CCc3ccccc3N2[C@@H](Cc2ccccc2)N1Nc1ccc([N+](=O)[O-])cc1 [ZXD-107A] | 0.12 µM | inhibition at 11 µM (Usutu virus (USUV); Drug concentration 11 μM): < 0%; inhibition at 33 µM (Usutu virus (USUV); Drug concentration 33 μM): < 0%; inhibition at 11 µM (Zika virus (ZIKV)): > 100% |
| O=C1[C@@H]2CCc3ccccc3N2[C@@H](c2ccccc2O)N1Nc1ccccc1 [ZXD-120B] | 6.5 µM | – |
| O=C1[C@@H]2CCc3ccccc3N2[C@@H](Cc2ccc(O)cc2)N1Nc1ccccc1 [ZXD-127B] | 5.2 µM | – |
| CC(C)(C)[Si](C)(C)Oc1ccc(C2N(Nc3ccc([N+](=O)[O-])cc3)C(=O)C3CCc4ccccc4N32)cc1 (stereo not drawn) [ZXD-132A] | 0.64 µM | – |
| O=C1C2CCc3ccccc3N2C(c2ccc(O)cc2)N1Nc1ccc([N+](=O)[O-])cc1 (stereo not drawn) [ZXD-133A] | 19.5 µM | – |
| COc1cc(C2N(Nc3ccccc3)C(=O)C3CCc4ccccc4N32)ccc1O[Si](C)(C)C(C)(C)C (stereo not drawn) [ZXD-142A] | 1.6 µM | EC50 (Zika virus): 1.56 ± 0.21 µM |

— patent US20220235057A1, “CYCLIC FORMYL AND CYCLIC KETONE COMPOUNDS, PREPARATION METHOD THEREFOR, AND PHARMACEUTICAL USE” (priority 2019, published 2022)
